The results in this text go back to ChEMBL document CHEMBL3880421, “Indazole compounds and pharmaceutical compositions for inhibiting protein kinases, and methods for their use” (2003).

Data set [1] can be described thus: Terminal half life in B6 mouse at 25 mg/kg, po administered in 0.5% CMC by UV-HPLC analysis. Format: ADME, organism-based. The note with it: in vivo, read-out: beta t1/2 (converted).
Data set [2] can be described thus: Terminal half life in B6 mouse at 25 mg/kg, ip by UV-HPLC analysis. It counts as ADME, organism-based. The following applies: in vivo, read-out: beta t1/2 (converted).
A short description of data set [3]: Terminal half life in B6 mouse at 25 mg/kg, po by UV-HPLC analysis. It counts as ADME, organism-based. The following applies: in vivo; for half-life: B6, mouse, read-out: beta t1/2 (converted).
Data set [4] relates to Rattus norvegicus. Kind of data set: Antivascular activity in rat model of retinopathy assessed as vessel regression in retina at 5 mg/ml, administered intravitreally on postnatal day 8 measured after 6 days by ADPase-staining based histochemical analysis. Format: functional.
Data set [5] is described as follows: Terminal half life in B6 mouse at 50 mg/kg, po by UV-HPLC analysis. Format: ADME, organism-based. The following applies: B6, mouse, in vivo, read-out: beta t1/2 (converted).
Data set [6] deals with Focal adhesion kinase 1 (Homo sapiens), Q05397 [P410T]. Description: Inhibition of human FAK P410T mutant expressed in baculovirus expression system at 10 uM using poly Glu-Tyr (4:1) as substrate by fluorescence polarization method.
Sequence of Focal adhesion kinase 1 (Homo sapiens), Q05397 [P410T] (Q05397 whole entry P410T): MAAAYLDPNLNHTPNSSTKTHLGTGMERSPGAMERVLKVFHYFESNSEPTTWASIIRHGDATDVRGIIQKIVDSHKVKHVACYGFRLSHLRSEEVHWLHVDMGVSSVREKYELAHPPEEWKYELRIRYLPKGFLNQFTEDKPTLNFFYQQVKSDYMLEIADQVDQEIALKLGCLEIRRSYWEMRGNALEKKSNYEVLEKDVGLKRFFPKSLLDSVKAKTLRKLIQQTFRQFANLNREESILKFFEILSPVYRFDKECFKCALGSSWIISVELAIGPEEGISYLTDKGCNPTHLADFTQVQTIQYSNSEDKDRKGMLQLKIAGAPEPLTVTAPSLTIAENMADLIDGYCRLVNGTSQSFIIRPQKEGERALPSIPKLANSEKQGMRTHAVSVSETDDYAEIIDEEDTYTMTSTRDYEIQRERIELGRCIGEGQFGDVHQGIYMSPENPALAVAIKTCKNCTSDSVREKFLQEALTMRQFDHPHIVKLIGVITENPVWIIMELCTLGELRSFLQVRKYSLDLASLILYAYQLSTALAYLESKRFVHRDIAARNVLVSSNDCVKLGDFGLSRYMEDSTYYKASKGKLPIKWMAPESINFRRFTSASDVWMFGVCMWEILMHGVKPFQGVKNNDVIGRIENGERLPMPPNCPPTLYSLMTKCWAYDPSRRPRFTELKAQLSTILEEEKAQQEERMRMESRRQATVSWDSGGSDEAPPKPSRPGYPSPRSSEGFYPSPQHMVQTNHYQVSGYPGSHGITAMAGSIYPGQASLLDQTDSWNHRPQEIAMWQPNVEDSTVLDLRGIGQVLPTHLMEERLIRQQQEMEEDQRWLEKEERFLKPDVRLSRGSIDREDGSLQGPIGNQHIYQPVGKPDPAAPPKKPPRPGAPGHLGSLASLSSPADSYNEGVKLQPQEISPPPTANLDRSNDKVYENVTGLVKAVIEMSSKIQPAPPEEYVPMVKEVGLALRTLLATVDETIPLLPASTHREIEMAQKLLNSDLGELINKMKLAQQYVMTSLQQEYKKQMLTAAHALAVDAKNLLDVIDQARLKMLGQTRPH
Data set [7] deals with Rattus norvegicus. Kind of data set: Antivascular activity in rat model of retinopathy assessed as vessel regression in retina at 5 mg/ml, administered intravitreally measured after 6 days by ADPase-staining based histochemical analysis. Format: functional.
A short description of data set [8]: Terminal half life in B6 mouse at 8 mg/kg, po by UV-HPLC analysis. It counts as ADME, organism-based. The note with it: in vivo, read-out: beta t1/2 (converted).
Data set [9] can be described thus: Cmin in B6 mouse at 40 mg/kg, po measured after 7 hrs by UV-HPLC analysis. It counts as ADME, organism-based. The note with it: in vivo, read-out: Cmin.
A short description of data set [10]: Terminal half life in B6 mouse at 10 mg/kg, po by UV-HPLC analysis. Format: ADME, organism-based. The note with it: in vivo, read-out: beta t1/2 (converted).
Data set [11] is described as follows: Terminal half life in B6 mouse at 40 mg/kg, po by UV-HPLC analysis. Format: ADME, organism-based. The note with it: in vivo, read-out: beta t1/2 (converted).
Data set [12] is described as follows: AUClast in B6 mouse at 10 mg/kg, po by UV-HPLC analysis. Further details: dose 10 mg/kg, route oral, time 0 - last. It counts as ADME, organism-based. The following applies: in vivo.
A short description of data set [13]: Cmin in B6 mouse at 8 mg/kg, po measured after 7 hrs by UV-HPLC analysis. It counts as ADME, organism-based. The note with it: in vivo, read-out: Cmin.
Data set [14] in a line: Cmax in B6 mouse at 10 mg/kg, po by UV-HPLC analysis. It counts as ADME, organism-based. Set-up: dose 10 mg/kg, route oral. The following applies: in vivo.
The nature of data set [15]: Cmax in B6 mouse at 50 mg/kg, po by UV-HPLC analysis. The following applies: in vivo. It counts as ADME, organism-based. Further details: dose 50 mg/kg, route oral.
Data set [16] deals with T1, Serine/threonine-protein kinase Chk1 (Homo sapiens) (UniProt O14757).
T1 sequence (whole entry): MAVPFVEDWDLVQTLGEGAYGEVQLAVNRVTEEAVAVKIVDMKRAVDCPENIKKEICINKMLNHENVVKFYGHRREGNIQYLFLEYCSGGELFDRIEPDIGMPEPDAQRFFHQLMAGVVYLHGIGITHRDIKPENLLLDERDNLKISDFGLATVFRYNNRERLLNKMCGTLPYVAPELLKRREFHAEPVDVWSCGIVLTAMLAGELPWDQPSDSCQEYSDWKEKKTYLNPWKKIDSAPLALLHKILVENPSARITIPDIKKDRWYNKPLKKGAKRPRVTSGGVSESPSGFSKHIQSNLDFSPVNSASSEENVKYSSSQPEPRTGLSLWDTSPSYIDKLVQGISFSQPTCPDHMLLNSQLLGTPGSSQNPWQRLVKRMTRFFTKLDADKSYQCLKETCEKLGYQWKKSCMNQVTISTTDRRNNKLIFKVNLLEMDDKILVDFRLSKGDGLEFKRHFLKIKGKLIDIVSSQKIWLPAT
Description: Inhibition of full length human C-terminal 6His-tagged CHK1 expressed in baculovirus/insect expression system assessed as reduction in NADH oxidation at 20 uM using Syntide2 as substrate by pyruvate kinase/lactate dehydrogenase coupled assay.

Data set [17] has as its target T1, Serine/threonine-protein kinase Chk1 (Homo sapiens). Kind of data set: Inhibition of full length human C-terminal 6His-tagged CHK1 expressed in baculovirus/insect expression system assessed as reduction in NADH oxidation at 50 uM using Syntide2 as substrate by pyruvate kinase/lactate dehydrogenase coupled assay.
Data set [18] is described as follows: Metabolic stability in human liver microsomes assessed as compound remaining at 5 uM measured after 2 hrs in presence of NADPH-regenerating system by LC-UV/MS analysis. It counts as ADME. The following applies: read-out: Stability.
Data set [19] is described as follows: (§1) Cmax in B6 mouse at 25 mg/kg, po by UV-HPLC analysis. The following applies: B6, mouse, in vivo. Further details: dose 25 mg/kg, route oral. It counts as ADME, organism-based.
Data set [20] can be described thus: AUClast in B6 mouse at 50 mg/kg, po by UV-HPLC analysis. It counts as ADME, organism-based. Set-up: dose 50 mg/kg, route oral, time 0 - last. The note with it: in vivo.
The test system of a further data set is Mus musculus. The data set is described as §1. Format: ADME, organism-based. Set-up: dose 25 mg/kg, route oral. The note with it: mouse, in vivo, BLD = below limit of detection.
The nature of data set [21]: Cmin in B6 mouse at 200 mg/kg, po measured after 7 hrs by UV-HPLC analysis. Format: ADME, organism-based. The following applies: in vivo, read-out: Cmin.
The nature of data set [22]: AUClast in B6 mouse at 25 mg/kg, po by UV-HPLC analysis. It counts as ADME, organism-based. Set-up: dose 25 mg/kg, time 0 - last, route oral. The following applies: in vivo.
The nature of data set [23]: Terminal half life in B6 mouse at 200 mg/kg, po by UV-HPLC analysis. It counts as ADME, organism-based. The note with it: in vivo, read-out: beta t1/2 (converted).
Data set [24] can be described thus: AUClast in B6 mouse at 200 mg/kg, po by UV-HPLC analysis. It counts as ADME, organism-based. Set-up: dose 200 mg/kg, time 0 - last, route oral. The following applies: in vivo.
Data set [25] deals with Cyclin-dependent kinase 1 (Homo sapiens) (UniProt P06493). Description: Inhibition of CDK1 (unknown origin) at 1 uM.
Sequence of Cyclin-dependent kinase 1 (Homo sapiens) (P06493 whole entry, looked up): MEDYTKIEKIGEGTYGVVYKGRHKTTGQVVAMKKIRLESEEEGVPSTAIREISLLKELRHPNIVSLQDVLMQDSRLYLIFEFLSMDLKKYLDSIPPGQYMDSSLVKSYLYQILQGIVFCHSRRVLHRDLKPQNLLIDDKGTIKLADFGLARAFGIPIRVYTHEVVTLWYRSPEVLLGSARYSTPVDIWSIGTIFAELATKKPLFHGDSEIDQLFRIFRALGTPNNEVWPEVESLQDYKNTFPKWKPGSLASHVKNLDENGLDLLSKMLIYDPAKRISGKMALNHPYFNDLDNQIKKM
The subject of data set [26] is Vascular endothelial growth factor receptor 2 (Homo sapiens), P35968 [E990V]. The note with it: at 50 nM.

Sequence of Vascular endothelial growth factor receptor 2 (Homo sapiens), P35968 [E990V] (P35968 whole entry E990V): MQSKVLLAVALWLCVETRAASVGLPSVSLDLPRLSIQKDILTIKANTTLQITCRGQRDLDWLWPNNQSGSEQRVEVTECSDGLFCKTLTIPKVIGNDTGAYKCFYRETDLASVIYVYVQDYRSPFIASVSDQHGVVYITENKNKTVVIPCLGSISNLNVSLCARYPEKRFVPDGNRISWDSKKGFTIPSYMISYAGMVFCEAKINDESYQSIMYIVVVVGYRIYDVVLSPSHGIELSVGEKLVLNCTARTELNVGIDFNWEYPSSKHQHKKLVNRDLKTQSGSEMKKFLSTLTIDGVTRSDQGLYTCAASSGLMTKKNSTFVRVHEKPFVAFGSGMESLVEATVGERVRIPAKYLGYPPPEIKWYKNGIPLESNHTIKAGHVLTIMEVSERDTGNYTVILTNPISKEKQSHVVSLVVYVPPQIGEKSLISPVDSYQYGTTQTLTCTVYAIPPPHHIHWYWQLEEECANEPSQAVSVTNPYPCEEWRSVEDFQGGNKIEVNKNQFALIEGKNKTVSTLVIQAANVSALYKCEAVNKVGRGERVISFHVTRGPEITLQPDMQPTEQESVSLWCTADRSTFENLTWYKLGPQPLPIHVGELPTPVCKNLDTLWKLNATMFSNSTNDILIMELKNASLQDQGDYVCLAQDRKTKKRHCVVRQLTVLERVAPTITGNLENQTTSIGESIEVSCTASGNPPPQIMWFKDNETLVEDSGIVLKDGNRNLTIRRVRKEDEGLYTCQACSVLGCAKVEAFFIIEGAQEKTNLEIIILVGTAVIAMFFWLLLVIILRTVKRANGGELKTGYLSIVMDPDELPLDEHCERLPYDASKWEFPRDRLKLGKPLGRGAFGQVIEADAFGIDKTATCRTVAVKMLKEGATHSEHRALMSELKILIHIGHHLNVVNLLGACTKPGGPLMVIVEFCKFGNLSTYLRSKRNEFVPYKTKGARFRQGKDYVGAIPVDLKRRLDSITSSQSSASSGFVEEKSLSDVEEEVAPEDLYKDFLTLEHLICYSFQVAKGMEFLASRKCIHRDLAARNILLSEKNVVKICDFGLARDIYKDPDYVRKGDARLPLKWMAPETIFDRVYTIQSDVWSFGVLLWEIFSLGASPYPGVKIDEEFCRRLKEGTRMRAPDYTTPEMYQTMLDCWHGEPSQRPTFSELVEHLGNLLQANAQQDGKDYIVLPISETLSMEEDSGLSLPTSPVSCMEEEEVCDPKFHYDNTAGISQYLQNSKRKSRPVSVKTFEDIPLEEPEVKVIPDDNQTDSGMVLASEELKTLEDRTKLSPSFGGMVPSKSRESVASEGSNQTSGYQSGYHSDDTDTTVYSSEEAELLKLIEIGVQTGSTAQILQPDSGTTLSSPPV

Consider `CCONC(=O)c1ccccc1Sc1ccc2c(/C=C/c3ccccn3)n[nH]c2c1`, for which the half-life in data set [1] was 120 min; in data set [2], 246 min; in data set [3], 120 min. In addition, in the data set on Rattus norvegicus [4], the Activity result was “>=25 - 75%”.
Regarding `CCn1nc(C)cc1C(=O)Nc1cccc(C(=O)c2ccc3c(/C=C/c4ccccn4)n[nH]c3c2)c1`, the figures for the half-life in data set [5] and in [2] were 204 min and 174 min, respectively. Moreover, the Activity entry in the data set on Rattus norvegicus [4] was “>=25 - 75%”.
The molecule `COc1cc(-c2ccc3c(-c4cc5ccccc5[nH]4)n[nH]c3c2)ccc1O` yielded an inhibition in [6] of 26%.
Regarding `O=C(Nc1cccc(Oc2ccc3c(/C=C/c4ccc(Cl)cc4)n[nH]c3c2)c1)c1ccccc1`, the Activity in the data set on Rattus norvegicus [7] is listed as 25 - 75%.
For the molecule `C=C(C)CNC(=O)c1ccccc1Sc1ccc2c(/C=C/c3ccccn3)n[nH]c2c1`, the half-life in data set [2] was 90 min; in [3], 876 min.
Turning to `CC(=O)c1cccc(C(=O)Nc2cccc(N(C)c3ccc4c(/C=C/c5ccc6c(c5)OCO6)n[nH]c4c3)c2)c1`, the Activity in the data set on Rattus norvegicus [7] is listed as 36 - 37%.
For `CCn1nc(C)cc1C(=O)Nc1cccc(C(=O)c2ccc3c(/C=C/c4ccccn4)n[nH]c3c2)c1.Cl`, the half-life was 90 min in data set [8], 186 min in data set [10], 144 min in data set [11] and 96 min in [3]. For the same molecule, the concentration at 7 h in data set [9] stood at 1880 ng/mL; in data set [13], 122 ng/mL. Also, in [12], the AUC(0-t) worked out at 61 ng·h/mL. In addition, in data set [14], the Cmax was 12 ng/mL.
Turning to `O=C(Nc1cccc(Oc2ccc3c(/C=C/c4ccccc4)n[nH]c3c2)c1)c1ccccc1`, the Cmax in data set [15] stood at 198 ng/mL.
For `O=C(c1ccc2c(-c3nc4ccccc4[nH]3)n[nH]c2c1)N1CCC(CCO)CC1`, in data set [16], the inhibition is 33%.
With `O=C(c1cccc(NC(=O)C2C[C@H]2c2ccccc2)c1)c1ccc2c(/C=C/c3ccccn3)n[nH]c2c1` (mixture of isomers), the inhibition in [17] amounted to 48%. For the same molecule, the values for the half-life in [5] and in data set [2] were 30 min and 186 min, respectively.
For the molecule `O=C(Nc1cccc(C(=O)c2ccc3c(/C=C/c4ccccn4)n[nH]c3c2)c1)c1ccncc1`, the remaining at 2 h, 5 µM in data set [18] is 50%. Moreover, the values for the half-life in data set [5] and in data set [2] were 66 min and 282 min, respectively.
Regarding `Cc1cc(C(=O)Nc2cc(C(=O)c3ccc4c(/C=C/c5ccccn5)n[nH]c4c3)c(C)cc2C)n(C)n1`, the Activity entry with Rattus norvegicus [4] is on record as “<=25%”.
Turning to `CCn1nc(C)cc1C(=O)Nc1cccc(Oc2ccc3c(/C=C/c4ccccn4)n[nH]c3c2)c1`, the half-life in [10] was 186 min; in data set [5], 2360 min; in [2], 318 min; in data set [3], 114 min.
`Cc1cc(NC(=O)c2ccc3c(-c4nc5ccccc5[nH]4)n[nH]c3c2)n[nH]1`: the inhibition in data set [16] is 38.6%.
For `CCn1nc(C)cc1C(=O)Nc1cccc(Oc2ccc3c(/C=C/c4c[nH]cn4)n[nH]c3c2)c1`, the half-life in data set [3] is 126 min. In data set [19], this molecule returned a Cmax of 179 ng/mL.
Molecule `CCn1nc(C)cc1C(=O)Nc1cc(Nc2ccc3c(/C=C/c4ccccn4)n[nH]c3c2)c(F)cc1C.Cl` yielded an AUC(0-t) in [20] of 276 µg·h/mL.
With `O=C(NCc1cccc(F)c1)c1ccccc1Sc1ccc2c(/C=C/c3ccccn3)n[nH]c2c1`, the “beta t1/2” value in [3] (mouse, BLD = below limit of detection) is “Bld”. Moreover, the Cmax entry in the data set on Mus musculus was “Bld”.
As to `C=CCONC(=O)c1ccccc1Sc1ccc2c(/C=C/c3ccccn3)n[nH]c2c1`, the half-life in data set [5] was 270 min; in [2], 78 min.
With `O=C(c1cccc(NC(=O)c2cccc3[nH]ccc23)c1)c1ccc2c(/C=C/c3ccccn3)n[nH]c2c1`, the half-life in data set [5] was 90 min; in [2], 168 min.
Take `C/C=C/C(=O)Nc1cccc(C(=O)c2ccc3c(/C=C/c4ccccn4)n[nH]c3c2)c1`: the half-life is 156 min in [5] and 102 min in data set [2]. Also, the Activity in the data set with Rattus norvegicus [4] is reported as 25 - 75%.
With `O=C(Nc1cccc(C(=O)c2ccc3c(/C=C/c4ccccc4)n[nH]c3c2)c1)c1ccncc1`, the half-life was 72 min in [5] and 96 min in [2].
`O=C(Nc1cccc(O)c1)c1ccc2c(-c3nc4ccccc4[nH]3)n[nH]c2c1`: the inhibition in data set [16] was 57.7%.
Turning to `Cc1cc(C(=O)Nc2cc(Nc3ccc4c(/C=C/c5ccccn5)n[nH]c4c3)ccc2F)n(C)n1.Cl`, the concentration at 7 h in [9] came out at 4140 ng/mL; in [21], 12700 ng/mL; in data set [13] it was 1900 ng/mL. This molecule returned an AUC(0-t) in data set [22] of 327 µg·h/mL. For the same molecule, the Cmax in [19] came to 50000 ng/mL.
For the molecule `Cc1cc(C(=O)Nc2cccc(C(=O)c3ccc4c(/C=C/c5ccccn5)n[nH]c4c3)c2)n(C)n1.Cl`, the half-life in data set [23] is 564 min. Further, the concentration at 7 h in data set [21] turned out to be 12100 ng/mL. The AUC(0-t) in data set [24] came out at 156 µg·h/mL.
In the case of `Cc1cc(C(=O)Nc2cccc(Oc3ccc4c(/C=C/c5ccccn5)n[nH]c4c3)c2)nn1C`, the half-life in data set [5] is 60 min; in [2], 102 min.
In data set [25], `Fc1cccc(/C=C/c2n[nH]c3cc(-c4ccncc4)ccc23)c1F` gave an inhibition of 7 to 31%.
As for `C#CCNC(=O)c1cccc(C(=O)c2ccc3c(/C=C/c4ccccn4)n[nH]c3c2)c1`, the inhibition in data set [26] worked out at 5%.
With `O=C(NCCN1CCOCC1)c1ccc2c(-c3nc4ccccc4[nH]3)n[nH]c2c1`, the inhibition in data set [16] was determined as 21.7%.
Consider `CCn1nc(C)cc1C(=O)Nc1cccc(Oc2ccc3c(/C=C/c4ccccn4)n[nH]c3c2)c1.Cl`, for which the half-life in data set [3] is 1260 min.

In general, inhibition refers to the share of the control response that was lost under treatment. For orientation: AUC(0-t) means the area under the concentration-time curve up to a stated or last time point. What is called Cmax is the highest concentration seen after dosing.
